Laboratory results published in publication PMC3104677 (Molecular microbiology, 2009).

Molecular target: T1, NrpR (Methanococcus maripaludis, UniProt Q6LZL7)
T1 sequence (Q6LZL7 1-536): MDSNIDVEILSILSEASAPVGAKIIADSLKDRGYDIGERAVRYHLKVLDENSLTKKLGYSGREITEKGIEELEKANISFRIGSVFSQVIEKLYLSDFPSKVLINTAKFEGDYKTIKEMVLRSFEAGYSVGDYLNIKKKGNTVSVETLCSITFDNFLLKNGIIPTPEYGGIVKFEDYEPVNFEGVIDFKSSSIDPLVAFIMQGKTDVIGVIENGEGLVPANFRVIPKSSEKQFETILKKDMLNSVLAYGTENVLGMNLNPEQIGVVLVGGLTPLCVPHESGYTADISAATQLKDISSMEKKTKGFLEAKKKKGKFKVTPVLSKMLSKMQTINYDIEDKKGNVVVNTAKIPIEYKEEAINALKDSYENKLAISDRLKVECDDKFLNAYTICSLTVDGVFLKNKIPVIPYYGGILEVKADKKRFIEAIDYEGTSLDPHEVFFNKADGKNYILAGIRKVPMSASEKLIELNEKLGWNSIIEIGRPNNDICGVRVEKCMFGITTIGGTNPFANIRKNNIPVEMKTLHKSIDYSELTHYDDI
Assay: EMSA, inhibition of NrpR binding to […]-labelled glnK1 operator DNA
Details: inducer ligand; wild type glnK1 operator region O1+O2; 0.1 and 0.4 mM 2OG

`O=C(O)CCC(=O)C(=O)O` [2-oxoglutarate] was tested, and the “EMSA, inhibition of NrpR binding to 32P-labelled glnK1 operator DNA” value was 2OG indicates the nitrogen state of the cell and is the inducer ligand.
